Measured values from the NIST ThermoML archive (doi:10.1021/acs.jced.7b00241).
Numbers after ± are expanded uncertainties.

Conditions: Liquid; for mass density: 298.15 K, 101.33 kPa, Vibrating tube method; for Normal boiling temperature: Ebulliometric method (Recirculating still)

mass density [kg/m3] | Normal boiling temperature [°C] | SMILES
798 ± 0.2 | 107.83 ± 0.2 | CC(C)CO [2-methyl-1-propanol]
866.2 ± 0.2 | 116.8 ± 0.2 | CC(=O)OCC(C)C [2-methylpropyl ethanoate]
1095.5 ± 0.2 | 190.70 ± 0.2 | C[S+](C)[O-] [dimethyl sulfoxide]
